Assay results: PubChem BioAssay AID179 (DTP/NCI, 2004)
Active and inactive are the calls of the source.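 How the source made its calls: active means compounds giving half or more protection of infected cells from virus-caused growth loss, again on retest; inactive means the rest.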

Tested on: CEM cells HIV-1 protection, formazan growth assay
Test: NCI AIDS Antiviral Assay
Details: for IC50: measured here: growth of uninfected CEM cells
Summary of the method: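 Protection of CEM cells against HIV-1 measured as cell growth via soluble formazan read-out, with five concentrations tested on both infected and uninfected cells; failure to protect may reflect toxicity.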

Cc1cc(C)nc(NS(=O)(=O)c2ccc(Nc3c4ccccc4nc4c(C(=O)N5CCN(CCOS(C)(=O)=O)CC5)cccc34)cc2)n1
EC50: > 42.7 µM
IC50: > 42.7 µM

CC(C)(C)OC(=O)N/N=C(/N)Cc1ccccc1
EC50: > 200 µM
IC50: > 200 µM

O=C(O)CCCc1ccc(N(CCCl)OCCCl)cc1
EC50: > 200 µM
IC50: 21.9 µM

CCOC(=O)Cc1ccc(Nc2nc3ccccc3nc2C(=O)OCC)cc1
EC50: 91.2 µM
IC50: > 200 µM

CCOC(=O)C(=[N+]=[N-])C(=O)C[N+]12CCN(CC1)CC2
EC50: > 200 µM
IC50: > 200 µM

CC(C)(C)OP(O)(=S)OC(C)(C)C
EC50: > 200 µM
IC50: > 200 µM

COc1ccc(NC(=O)CC(=O)N2N=C(N3CCCCC3)CC2c2ccccc2)cc1 (stereo unspecified)
EC50: > 200 µM
IC50: > 200 µM

COC(=O)[C@@H]1C[C@H]([Se]c2ccccc2)CN1S(=O)(=O)c1ccc(C)cc1
outcome: inactive

O=c1n(Cl)c(=O)n(Cl)c(=O)n1Cl
outcome: inactive

COc1ccc(/C=C/C(=O)c2ccc(OC(=O)/C=C/c3ccccc3)cc2)cc1
EC50: > 200 µM
IC50: 9.12 µM

Cc1ccc(C2(c3ccc(Cl)cc3)c3ccccc3C3=NCCN32)cc1 (stereo unspecified)
EC50: > 200 µM
IC50: 11 µM

O=C(/C=C/c1ccccc1)NCCC1(O)C(=O)Nc2ccccc21 (stereo unspecified)
EC50: > 562 µM
IC50: 525 µM

CCN(CC)C(=S)N/N=C(/C)c1cccc(/C(C)=N\NC(=S)N(CC)CC)n1
EC50: > 200 µM
IC50: 6.31 µM

COP(=O)(OC)c1nc(P(=O)(OC)OC)nc(P(=O)(OC)OC)n1
EC50: > 110 µM
IC50: 89.1 µM

COc1c(-c2ccccc2)nc2ccc(Oc3ccccc3)nn12
EC50: > 56.2 µM
IC50: > 56.2 µM

CC(=O)c1sc(=N)n(-c2c(C)cccc2C)c1C
EC50: > 200 µM
IC50: > 200 µM

O=C(Nc1cccc(O)c1)C(=O)C(C(=O)c1ccccc1F)C1OC(=O)c2ccccc21 (stereo unspecified)
EC50: > 302 µM
IC50: 24 µM

CCCCC1(C(NC(=O)c2ccccc2Cl)c2ccncc2)C(=O)N(c2ccccc2)N(c2ccccc2)C1=O (stereo unspecified)
outcome: inactive

O=[P+](O)c1cccnc1
outcome: inactive

O=c1c2ccccc2nc(N/N=C/c2ccccc2O)n1-c1ccccc1
EC50: > 200 µM
IC50: 1.48 µM

C=CC1=CC2(O[Si](C(C)C)(C(C)C)C(C)C)CCC1C(COCc1ccccc1)C2C(=O)O (stereo unspecified)
EC50: > 28.8 µM
IC50: 20 µM

C/C(=N\NC(=O)C[n+]1ccccc1)c1sc(-c2nc(C)c(/C(C)=N/NC(=O)C[n+]3ccccc3)s2)nc1C
EC50: > 30.2 µM
IC50: > 30.2 µM

Cc1cc(C)nc(NS(=O)(=O)c2ccc(Nc3c4ccc(Cl)cc4nc4c(C(=O)NCCN(C)C)cccc34)cc2)n1
EC50: > 214 µM
IC50: 89.1 µM

COc1ccc(C2c3cc4c(cc3OC(NNC(N)=O)C2C)OCO4)cc1 (stereo unspecified)
EC50: > 200 µM
IC50: 3.89 µM

O=[N+]([O-])c1ccc2nc(-c3ccccc3[N+](=O)[O-])[nH]c2c1
EC50: > 126 µM
IC50: 24.5 µM

COC(=O)c1c(NC(=O)C(C)C)n[nH]c1NC(=O)C(C)C
outcome: inactive

COC(=O)CC1NC(=O)C1C(C)O[Si](C)(C)C(C)(C)C (stereo unspecified)
EC50: > 603 µM
IC50: 288 µM

Cc1cc(=S)oc2c3c(ccc12)OC(C)(C)[C@H](OC(=O)C12CCC(C)(C(=O)O1)C2(C)C)[C@@H]3OC(=O)C12CCC(C)(C(=O)O1)C2(C)C (stereo partly specified)
EC50: 0.0575 µM
IC50: 20 µM

Cc1c(C#N)c(=O)[nH]c(=O)n1CCN1CCN(C(=O)NCCCCCCNC(=O)N2CCN(CCn3c(C)c(C#N)c(=O)[nH]c3=O)CC2)CC1
outcome: inactive

CCOC(=O)c1cc2c(OC(C)=O)ccc(OC(C)=O)c2s1
EC50: > 2 µM
IC50: 0.0794 µM

CC(C)(C)CC(C)(C)c1cc2c(O)c(c1)Cc1cc(C(C)(C)CC(C)(C)C)cc(c1O)Cc1cc(C(C)(C)CC(C)(C)C)cc(c1O)Cc1cc(C(C)(C)CC(C)(C)C)cc(c1O)Cc1cc(C(C)(C)CC(C)(C)C)cc(c1O)Cc1cc(C(C)(C)CC(C)(C)C)cc(c1O)C2
EC50: > 7.24 µM
IC50: > 7.24 µM

O=C1/C(=C\c2c(-c3ccccc3)nn(-c3ccccc3)c2O)C(c2ccccc2)=NN1c1ccccc1
EC50: > 100 µM
IC50: > 100 µM

COc1c(C)c(O)c2c(c1C)OC(c1ccccc1)CC2=O (stereo unspecified)
EC50: > 17.4 µM
IC50: > 17.4 µM

[O-][n+]1c(-c2ccccc2)c2nc3ccccc3nc2c2ccccc21
EC50: > 39.8 µM
IC50: > 39.8 µM

NNC(=O)c1ccccc1NC(=O)/C(=C/c1ccccc1)NC(=O)c1ccccc1
EC50: > 200 µM
IC50: 87.1 µM

CC(=O)OC(C)C(=O)C1c2cccc(O)c2C(=O)c2c(O)cc(C)cc21 (stereo unspecified)
EC50: > 191 µM
IC50: 3.24 µM

O=[N+]([O-])c1cc(C=NC23CC4CC(CC(C4)C2)C3)ccc1Cl
EC50: > 200 µM
IC50: 3.72 µM

Cc1cc(C)c2c(c1)CC1(Cc3c(C)ccc(C)c3C1=O)C2=O (stereo unspecified)
EC50: > 100 µM
IC50: > 100 µM

CN1CCN(c2n[nH]c(=O)c3c2nnn3C2CCCCC2)CC1
EC50: > 200 µM
IC50: > 200 µM

COc1nc2n[nH]nc2c(=O)[nH]1
outcome: inactive

C=C(C)CC1=C(OCC)C(OC)(OCC)C1=O (stereo unspecified)
EC50: > 200 µM
IC50: > 200 µM

CCN=C(NC(=O)c1ccc(Cl)cc1)SCSC(=NCC)NC(=O)c1ccc(Cl)cc1
EC50: > 200 µM
IC50: 72.4 µM

COC(=O)C(Br)C1CCc2ccccc21 (stereo unspecified)
EC50: > 251 µM
IC50: 141 µM

Cc1oc(NC(=O)C(=O)O)c(C#N)c1C
EC50: > 200 µM
IC50: > 200 µM

Cc1cc(N2CCCC2)c([N+](=O)[O-])cc1[N+](=O)[O-]
EC50: > 200 µM
IC50: > 200 µM

O=C(CCc1cc(-c2ccc(F)cc2)n[nH]1)N(Cc1ccccc1)Cc1ccccc1
EC50: > 17.4 µM
IC50: > 17.4 µM

c1ccc(-c2nc3nc4ccccc4nc3nc2-c2ccccn2)nc1
EC50: > 53.7 µM
IC50: 10.7 µM

C=C1C(=O)OC2CC(C)C3C=CC(=O)C3CC12 (stereo unspecified)
EC50: > 200 µM
IC50: 0.537 µM

O=C(N/C(=C\c1cc(Cl)ccc1Cl)c1nc2[nH]c(=S)[nH]c(=O)c2[nH]1)c1ccccc1
EC50: > 79.4 µM
IC50: 21.9 µM

O=S(Cc1cc2c(cc1Br)OCO2)c1ccccc1 (stereo unspecified)
EC50: > 39.8 µM
IC50: > 39.8 µM

CCCN(CCC)C(=S)N/N=C/c1cccc(C)n1
EC50: > 200 µM
IC50: 0.0631 µM

CCC1=NC(C(F)(F)F)(C(F)(F)F)N=C(N2CCOCC2)O1
EC50: > 200 µM
IC50: > 200 µM

CCOC(=O)c1c(C)c2c(n1C)CCc1cn[nH]c1-2
EC50: > 191 µM
IC50: 126 µM

O=S1(=O)c2ccc(cc2)N=CC=Nc2ccc1cc2
EC50: > 33.1 µM
IC50: > 33.1 µM

CCCCCOC(=O)c1cccc(NC(=O)CN(CC)CC)c1
EC50: > 200 µM
IC50: 95.5 µM

Cc1nn(-c2ccccc2)c2nc(N3CCOCC3)nnc12
outcome: inactive

O=C1OC2=C(c3ccccc3)C(=O)OC2=C1c1ccccc1
outcome: inactive

CCN(CC)C1C=CCC2C1S(=O)(=O)C2(C)C (stereo unspecified)
EC50: > 977 µM
IC50: > 977 µM

c1ccc(N=C(N2CCCC2)N(CCN2CCCC2)c2ccccc2)cc1
EC50: > 200 µM
IC50: 9.33 µM

COc1cc(/C=C2\C(=O)N(c3cc(Cl)ccc3Cl)C(c3ccccc3)S2(=O)=O)cc(OC)c1OC (stereo unspecified)
EC50: > 200 µM
IC50: 120 µM

CCOP(=O)(Nc1ccc(-c2ccc(N)cc2)cc1)OCC
EC50: > 200 µM
IC50: 170 µM

COC(O)C(=O)c1c2c(cc3c1CCC3)CCCC2 (stereo unspecified)
EC50: > 200 µM
IC50: 6.17 µM

NC1=NS(=O)(=O)Nc2nc(-c3ccc([N+](=O)[O-])o3)[nH]c21
EC50: > 200 µM
IC50: 10 µM

CC(=O)C(=[N+]=[N-])C(=O)N(C)CCC#N
EC50: > 200 µM
IC50: > 200 µM

CC(=O)c1ccccc1NCC(=O)Nn1cnc2ccc(S(=O)(=O)Nc3ccccc3C(C)=O)cc2c1=O
EC50: > 200 µM
IC50: > 200 µM

O=C(O)CCC(NC(=O)c1ccc(Oc2nc3ccccc3nc2-c2ccccc2)cc1)C(=O)O (stereo unspecified)
EC50: > 200 µM
IC50: > 200 µM

Cc1ccc(S(=O)(=O)N2CCNCCN(S(=O)(=O)c3ccc(C)cc3)CCNCC2)cc1
EC50: > 126 µM
IC50: 51.3 µM

CC(=O)Oc1cc2oc(=O)cc(C)c2cc1OC(C)=O
outcome: inactive

c1ccc(C2(c3ccccc3)SCCCS2)cc1
EC50: > 19.1 µM
IC50: > 19.1 µM

CCOC(=O)C1Oc2ccc([N+](=O)[O-])c3c2C1(O)CCC3 (stereo unspecified)
outcome: inactive

COC(=O)C1=C(C(=O)OC)C2OC1C1C2C2(C)C(C)=C(C)C1(C)S2=O (stereo unspecified)
EC50: > 200 µM
IC50: 2.82 µM

Oc1ccc(Nc2ccccc2)cc1
EC50: > 141 µM
IC50: 24.5 µM

CCOC(=O)c1ccc(-n2[nH]c(=O)ccc2=O)cc1
EC50: > 191 µM
IC50: > 191 µM

CCCCCCCCCCCCOC1OC(CO)C(O)C(O)C1O (stereo unspecified)
EC50: > 85.1 µM
IC50: 38 µM

C=C(C)CC1(O)C(=O)C(OCC)=C1OCC (stereo unspecified)
EC50: > 200 µM
IC50: > 200 µM

O=C(/C=C/c1cccs1)c1ccc([N+](=O)[O-])cc1
EC50: > 200 µM

O=C(NCCCCl)c1c(O)c2ccccc2[nH]c1=O
EC50: > 200 µM
IC50: 81.3 µM

COc1ccc(P2(=S)Oc3ccccc3-c3ccccc3O2)cc1
EC50: > 0.2 µM
IC50: 0.0631 µM

C[N+]1(C2=C([O-])C(F)(F)C2=O)CCOCC1
EC50: > 200 µM
IC50: > 200 µM

CCNC(=O)Cc1nc2c(=O)[nH]cnc2n1C1OC(CO)C(O)C1O (stereo unspecified)
EC50: > 200 µM
IC50: > 200 µM

CC(=O)OC1=C(C)S(=O)(=O)c2ccccc21
EC50: > 200 µM
IC50: > 200 µM

CP(=O)(CCSc1ccccc1)c1ccccc1 (stereo unspecified)
EC50: > 661 µM
IC50: > 661 µM

C/C(CC(=O)Nc1ccccc1[N+](=O)[O-])=N\NC(N)=O
EC50: > 468 µM
IC50: > 468 µM

O=[N+]([O-])c1cc(/C=N\NS(=O)(=O)c2ccc(Cl)cc2)c(O)c([N+](=O)[O-])c1
EC50: > 617 µM
IC50: 34.7 µM

C(/Cc1ccc2c(c1)OCO2)=N\NC1=NCCN1
EC50: > 200 µM
IC50: 117 µM

Cc1nonc1C(=O)NN
EC50: > 631 µM
IC50: > 631 µM

COc1ccccc1/C=C/c1nc2ccccc2o1
EC50: > 200 µM
IC50: 107 µM

CC1CCC2(OC2(C)C)C(=O)C1 (stereo unspecified)
EC50: > 200 µM
IC50: > 200 µM

C[C@@H]1[C@H](C)N1CC(O)Cn1ccnc1[N+](=O)[O-] (stereo partly specified)
EC50: > 200 µM
IC50: > 200 µM
